# Legend:
# Format in all cases: cell-based
# [1] = Blockade of human K+ channel in HEK293 cells assessed as inhibition of outward delayed rectifying K+ current
# HEK293 = test: Blockade of human K+ channel in HEK293 cells assessed as inhibition of outward delayed rectifying K+ current at 10 uM
# [2] = target: Potassium voltage-gated channel subfamily A member 6 (Homo sapiens) (UniProt P17658); test: Blockade of Kv1.6 channel over-expressed in CHO cells assessed as inhibition of delayed rectifying K+ current at 10 uM
# [3] = target: Potassium voltage-gated channel subfamily A member 1 (Homo sapiens) (UniProt Q09470); test: Blockade of Kv1.1 channel over-expressed in CHO cells assessed as inhibition of delayed rectifying K+ current at 10 uM
# [4] = target: Potassium voltage-gated channel subfamily A member 2 (Homo sapiens) (UniProt P16389); test: Blockade of Kv1.2 channel over-expressed in CHO cells assessed as inhibition of delayed rectifying K+ current at 10 uM
# [5] = target: Potassium voltage-gated channel subfamily A member 3 (Homo sapiens) (UniProt P22001); test: Blockade of Kv1.3 channel over-expressed in CHO cells assessed as inhibition of delayed rectifying K+ current at 10 uM
# Sequence of Potassium voltage-gated channel subfamily A member 3 (Homo sapiens) (P22001 whole entry): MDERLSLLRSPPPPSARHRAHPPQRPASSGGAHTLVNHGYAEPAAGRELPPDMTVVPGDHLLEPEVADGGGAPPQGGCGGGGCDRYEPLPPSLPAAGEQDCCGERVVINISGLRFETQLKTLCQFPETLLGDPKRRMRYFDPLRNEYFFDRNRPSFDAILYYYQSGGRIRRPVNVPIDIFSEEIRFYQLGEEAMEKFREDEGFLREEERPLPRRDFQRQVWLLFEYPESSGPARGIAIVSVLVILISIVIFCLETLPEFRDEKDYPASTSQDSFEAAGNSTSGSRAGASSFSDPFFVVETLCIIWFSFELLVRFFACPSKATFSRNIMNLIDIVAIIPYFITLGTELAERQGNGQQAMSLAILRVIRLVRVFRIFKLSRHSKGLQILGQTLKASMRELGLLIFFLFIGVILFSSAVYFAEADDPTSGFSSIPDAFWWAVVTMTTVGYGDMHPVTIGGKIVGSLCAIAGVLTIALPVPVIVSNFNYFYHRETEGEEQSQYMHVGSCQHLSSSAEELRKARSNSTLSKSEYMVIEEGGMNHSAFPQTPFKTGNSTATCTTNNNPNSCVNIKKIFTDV
# Sequence of Potassium voltage-gated channel subfamily A member 2 (Homo sapiens) (P16389 whole entry): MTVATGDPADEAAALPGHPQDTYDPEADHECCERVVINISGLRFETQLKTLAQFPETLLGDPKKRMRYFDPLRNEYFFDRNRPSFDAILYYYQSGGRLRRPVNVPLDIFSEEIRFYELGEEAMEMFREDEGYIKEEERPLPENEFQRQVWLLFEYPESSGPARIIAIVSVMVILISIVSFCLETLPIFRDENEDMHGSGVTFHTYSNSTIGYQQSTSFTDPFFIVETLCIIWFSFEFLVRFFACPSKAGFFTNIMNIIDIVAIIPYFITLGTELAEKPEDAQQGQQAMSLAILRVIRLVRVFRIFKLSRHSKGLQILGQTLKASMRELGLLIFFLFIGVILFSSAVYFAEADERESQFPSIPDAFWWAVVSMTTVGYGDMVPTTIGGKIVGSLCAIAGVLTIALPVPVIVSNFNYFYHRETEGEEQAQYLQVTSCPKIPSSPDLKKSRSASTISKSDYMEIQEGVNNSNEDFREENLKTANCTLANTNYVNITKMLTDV
# Sequence of Potassium voltage-gated channel subfamily A member 1 (Homo sapiens) (Q09470 whole entry): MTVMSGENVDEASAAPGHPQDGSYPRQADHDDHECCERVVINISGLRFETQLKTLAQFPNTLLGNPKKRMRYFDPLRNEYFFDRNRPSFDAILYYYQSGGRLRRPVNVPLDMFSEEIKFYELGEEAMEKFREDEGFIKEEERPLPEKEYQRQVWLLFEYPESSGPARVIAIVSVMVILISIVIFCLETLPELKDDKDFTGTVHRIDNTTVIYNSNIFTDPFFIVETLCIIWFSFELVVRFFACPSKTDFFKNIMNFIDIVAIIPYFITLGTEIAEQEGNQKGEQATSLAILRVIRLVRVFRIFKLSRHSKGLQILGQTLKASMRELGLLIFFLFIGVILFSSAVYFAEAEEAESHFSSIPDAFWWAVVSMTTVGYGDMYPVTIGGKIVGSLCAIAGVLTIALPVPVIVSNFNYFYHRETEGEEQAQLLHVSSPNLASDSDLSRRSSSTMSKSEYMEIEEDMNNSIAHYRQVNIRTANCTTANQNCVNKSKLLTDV
# Sequence of Potassium voltage-gated channel subfamily A member 6 (Homo sapiens) (P17658 whole entry): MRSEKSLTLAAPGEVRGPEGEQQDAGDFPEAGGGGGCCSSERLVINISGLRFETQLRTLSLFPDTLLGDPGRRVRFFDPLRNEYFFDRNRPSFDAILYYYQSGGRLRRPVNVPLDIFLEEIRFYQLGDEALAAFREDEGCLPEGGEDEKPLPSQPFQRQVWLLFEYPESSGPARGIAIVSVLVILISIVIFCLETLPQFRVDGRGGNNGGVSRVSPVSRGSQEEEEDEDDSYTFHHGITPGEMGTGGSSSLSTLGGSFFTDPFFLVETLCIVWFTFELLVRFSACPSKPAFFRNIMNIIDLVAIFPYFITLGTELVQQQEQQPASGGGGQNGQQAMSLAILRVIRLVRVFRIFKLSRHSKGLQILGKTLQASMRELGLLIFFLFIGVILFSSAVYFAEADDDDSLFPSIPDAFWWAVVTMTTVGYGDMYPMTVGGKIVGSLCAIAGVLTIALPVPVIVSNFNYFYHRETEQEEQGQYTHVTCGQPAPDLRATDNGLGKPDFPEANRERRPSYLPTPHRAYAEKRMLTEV
Structure (SMILES),IC50 [1] [µM],further results
O=C(/C=C/c1ccccc1)c1ccc(O)cc1 [4'-HYDROXYCHALCONE],> 50,
O=C(/C=C/c1ccc(OS(=O)(=O)c2ccccc2)cc1)c1ccccc1,> 50,
O=C(/C=C/c1ccccc1)c1ccccc1 [CHALCONE],> 50,inhibition (HEK293): 24.2%
Nc1ccc(S(=O)(=O)Oc2cccc(C(=O)/C=C/c3ccc(O)cc3)c2)cc1,0.51,inhibition [2]: 44.2%; inhibition [3]: 87.5%; inhibition [4]: 87.4%; inhibition [5]: 20.6%
Cc1ccc(S(=O)(=O)Oc2ccc(/C=C/C(=O)c3ccccc3)cc2)cc1,> 50,
O=C(/C=C/c1ccc(O)cc1)c1ccccc1 [4-HYDROXYCHALCONE],> 50,
O=C(/C=C/c1ccc(O)cc1)c1ccc(OS(=O)(=O)c2ccc([N+](=O)[O-])cc2)cc1,10.7,
O=C(/C=C/c1ccc(OS(=O)(=O)c2ccc(F)cc2)cc1)c1ccccc1,> 50,
O=C(/C=C/c1ccc(O)cc1)c1ccc(OS(=O)(=O)c2ccc(F)cc2)cc1,2.7,
Cc1ccc(S(=O)(=O)Oc2ccc(/C=C/C(=O)c3ccc(O)cc3)cc2)cc1,> 50,
"O=C(/C=C/c1ccc(O)cc1)c1ccc(O)cc1 [4,4'-DIHYDROXYCHALCONE]",> 50,inhibition (HEK293): 28.2%
Cc1ccc(S(=O)(=O)Oc2ccc(C(=O)/C=C/c3ccc(O)cc3)cc2)cc1,1.6,
CC(=O)Nc1ccc(S(=O)(=O)Oc2ccc(C(=O)/C=C/c3ccc(O)cc3)cc2)cc1,> 10,
O=C(/C=C/c1ccc(O)cc1)c1ccc(OS(=O)(=O)c2ccccc2)cc1,2.4,
Nc1ccc(S(=O)(=O)Oc2ccc(C(=O)/C=C/c3ccccc3)cc2)cc1,0.85,
Nc1ccc(S(=O)(=O)Oc2ccc(C(=O)/C=C/c3ccc(O)cc3)cc2)cc1,1.1,
COc1ccc(/C=C/C(=O)c2ccc(OS(=O)(=O)c3ccc(C)cc3)cc2)cc1,> 10,
